# Laboratory results published in paper PMC11012124, “Synthesis of Novel Triazine-Based Chalcones and 8,9-dihydro-7H-pyrimido[4,5-b][1,4]diazepines as Potential Leads in the Search of Anticancer, Antibacterial and Antifungal Agents” (International Journal of Molecular Sciences, 2024).
# Assays:
# 60 cancer cell lines = experiment: NCI-60 one-dose screen (10 μM); format: cell-based; conditions: Homo sapiens; one dose of 10 μM, mean over 60 cancer cell lines; read-out: Mean Growth Percent (MGP)
# Excerpt: Additionally, the mean of the growth percentages (MGP) of each compound against all the 60 cancer cell lines is also reported, which is used as one of the selection criteria to continue with tests at five concentration doses.
# [1] = system: M. tuberculosis ATCC 27294; experiment: Antitubercular broth microdilution MIC; format: cell-based; conditions: Mycobacterium tuberculosis; M. tuberculosis ATCC 27294 (H37Rv); read-out: Minimum inhibitory concentration (MIC)
# MOLT-4 = experiment: cells; conditions: Homo sapiens, MOLT-4, 48 h; for CC50: read-out: LC50
# RPMI-8226 = experiment: cells; conditions: Homo sapiens, RPMI-8226, 48 h; for CC50: read-out: LC50
# SR = experiment: cells; conditions: Homo sapiens, 48 h; for CC50: read-out: LC50
# A549/ATCC = experiment: cells; conditions: Homo sapiens, A549, 48 h; for CC50: read-out: LC50
# HOP-92 = experiment: cells; conditions: Homo sapiens, HOP-92, 48 h; for CC50: read-out: LC50
# NCI-H226 = experiment: cells; conditions: Homo sapiens, NCI-H226, 48 h; for CC50: read-out: LC50
# NCI-H23 = experiment: cells; conditions: Homo sapiens, NCI-H23, 48 h; for CC50: read-out: LC50
# NCI-H522 = experiment: cells; conditions: Homo sapiens, NCI-H522, 48 h; for CC50: read-out: LC50
# HCT-116 = experiment: cells; conditions: Homo sapiens, HCT-116, 48 h; for CC50: read-out: LC50
# SW-620 = experiment: cells; conditions: Homo sapiens, SW-620, 48 h; for CC50: read-out: LC50
# SNB-19 = experiment: cells; conditions: Homo sapiens, SNB-19, 48 h; for CC50: read-out: LC50
# U251 = experiment: cells; conditions: Homo sapiens, U-251, 48 h; for GI50: U251, 48 h; for CC50: read-out: LC50
# LOX IMVI = experiment: cells; conditions: Homo sapiens, 48 h; for CC50: read-out: LC50, LOX IMVI, 48 h
# MDA-MB-435 = experiment: cells; conditions: Homo sapiens, MDA-MB-435, 48 h; for CC50: read-out: LC50
# SK-MEL-2 = experiment: cells; conditions: Homo sapiens, SK-MEL-2, 48 h; for CC50: read-out: LC50
# IGROV1 = experiment: cells; conditions: Homo sapiens, IGROV-1, 48 h; for CC50: read-out: LC50
# NCI/ADR-RES = experiment: cells; conditions: Homo sapiens, 48 h; for CC50: read-out: LC50
# ACHN = experiment: cells; conditions: Homo sapiens, 48 h; for CC50: read-out: LC50
# PC-3 = experiment: cells; conditions: Homo sapiens, PC-3, 48 h; for CC50: read-out: LC50
# DU-145 = experiment: cells; conditions: Homo sapiens, DU-145, 48 h; for CC50: read-out: LC50
# MDA-MB-231/ATCC = experiment: cells; conditions: Homo sapiens, MDA-MB-231, 48 h; for CC50: read-out: LC50
# BT-549 = experiment: cells; conditions: Homo sapiens, BT-549, 48 h; for CC50: read-out: LC50
# T-47D = experiment: cells; conditions: Homo sapiens, T47D, 48 h; for CC50: read-out: LC50
compound,measurement,setting,value
CN(C)c1nc(NCCNS(=O)(=O)c2ccc(C(=O)/C=C/c3ccccc3)cc2)nc(Nc2ccc(F)cc2)n1 [24a],activity at 10 µM,60 cancer cell lines,13.6%
same,MIC,[1],25 µg/mL
same,GI50,MOLT-4,3.22 µM
same,CC50,MOLT-4,> 100 µM
same,GI50,RPMI-8226,3.04 µM
same,CC50,RPMI-8226,> 100 µM
same,GI50,SR,2.58 µM
same,CC50,SR,> 100 µM
same,GI50,A549/ATCC,8.33 µM
same,CC50,A549/ATCC,73.5 µM
same,GI50,HOP-92,8.1 µM
same,CC50,HOP-92,60.1 µM
same,GI50,NCI-H226,5.22 µM
same,CC50,NCI-H226,57.3 µM
same,GI50,NCI-H23,10.1 µM
same,CC50,NCI-H23,50 µM
same,GI50,NCI-H522,5.47 µM
same,CC50,NCI-H522,53.6 µM
same,GI50,HCT-116,1.72 µM
same,CC50,HCT-116,6.1 µM
same,GI50,SW-620,5.56 µM
same,CC50,SW-620,54.3 µM
same,GI50,SNB-19,10.4 µM
same,CC50,SNB-19,51 µM
same,GI50,U251,10.4 µM
same,CC50,U251,57.8 µM
same,GI50,LOX IMVI,2.47 µM
same,CC50,LOX IMVI,27.4 µM
same,GI50,MDA-MB-435,7.44 µM
same,CC50,MDA-MB-435,59.8 µM
same,GI50,SK-MEL-2,10.6 µM
same,CC50,SK-MEL-2,55.4 µM
same,GI50,IGROV1,11.2 µM
same,CC50,IGROV1,50.6 µM
same,GI50,NCI/ADR-RES,7.33 µM
same,CC50,NCI/ADR-RES,50.3 µM
same,GI50,ACHN,4.92 µM
same,CC50,ACHN,43.5 µM
same,GI50,PC-3,4.39 µM
same,CC50,PC-3,> 100 µM
same,GI50,DU-145,12.1 µM
same,CC50,DU-145,53.2 µM
same,GI50,MDA-MB-231/ATCC,4.84 µM
same,CC50,MDA-MB-231/ATCC,45.8 µM
same,GI50,BT-549,13.9 µM
same,CC50,BT-549,54.3 µM
same,GI50,T-47D,3.45 µM
same,CC50,T-47D,41.7 µM
COc1cc(/C=C/C(=O)c2ccc(S(=O)(=O)NCCNc3nc(Nc4ccc(F)cc4)nc(N(C)C)n3)cc2)cc(OC)c1OC [24d],activity at 10 µM,60 cancer cell lines,-0.31%
same,MIC,[1],50 µg/mL
same,GI50,MOLT-4,2.74 µM
same,CC50,MOLT-4,> 100 µM
same,GI50,RPMI-8226,2.5 µM
same,CC50,RPMI-8226,> 100 µM
same,GI50,SR,2.42 µM
same,CC50,SR,> 100 µM
same,GI50,A549/ATCC,12.2 µM
same,CC50,A549/ATCC,78.6 µM
same,GI50,HOP-92,11.5 µM
same,CC50,HOP-92,> 100 µM
same,GI50,NCI-H226,4.47 µM
same,CC50,NCI-H226,> 100 µM
same,GI50,NCI-H23,3.03 µM
same,CC50,NCI-H23,34.9 µM
same,GI50,NCI-H522,6.45 µM
same,CC50,NCI-H522,50 µM
same,GI50,HCT-116,1.77 µM
same,CC50,HCT-116,7.66 µM
same,GI50,SW-620,1.95 µM
same,CC50,SW-620,7.43 µM
same,GI50,SNB-19,11.2 µM
same,CC50,SNB-19,48.7 µM
same,GI50,U251,1.81 µM
same,CC50,U251,6.89 µM
same,GI50,LOX IMVI,1.71 µM
same,CC50,LOX IMVI,5.62 µM
same,GI50,MDA-MB-435,2.8 µM
same,CC50,MDA-MB-435,93.9 µM
same,GI50,SK-MEL-2,13.5 µM
same,CC50,SK-MEL-2,59.5 µM
same,GI50,IGROV1,16.1 µM
same,CC50,IGROV1,59.8 µM
same,GI50,NCI/ADR-RES,3.38 µM
same,CC50,NCI/ADR-RES,56.3 µM
same,GI50,ACHN,5.13 µM
same,CC50,ACHN,60.4 µM
same,GI50,PC-3,3.22 µM
same,CC50,PC-3,> 100 µM
same,GI50,DU-145,10.9 µM
same,CC50,DU-145,> 100 µM
same,GI50,MDA-MB-231/ATCC,4.41 µM
same,CC50,MDA-MB-231/ATCC,83.4 µM
same,GI50,BT-549,2.25 µM
same,CC50,BT-549,31.2 µM
same,GI50,T-47D,3.48 µM
same,CC50,T-47D,> 100 µM
